From patent publication US11639350B2, “Heteroaryldihydropyrimidine derivatives and methods of treating hepatitis B infections” (Janssen Pharmaceutica NV, priority 2018, dated 2023)

Tests used:
HBV = HBV inhibitory activity: HBV DNA in the culture medium of HepG2.2.15 cells by q-PCR; format: cell-based; conditions: Hepatitis B virus, HepG2.2.15, 144 h, HepG2.2.15 cells, 6 days of compound treatment, HBV DNA in culture medium by q-PCR, highest concentration 10 μM; read-out: EC50
Method: (§1) HBV replication inhibition by the compounds of this invention as well as cytotoxicity determination was determined in cells infected or transfected with HBV, or cells with stably integrated HBV, such as HepG2.2.15 cells (Sells et al. 1987). The method used herein is as follows.
(§2) The HepG2.2.15 cells were seeded into 96-well plate in 2% FBS (Fetal bovine serum) culture medium at the density of 40,000 cells/well and 5,000 cells/well for HBV inhibitory activity and cytotoxicity determination, respectively. After seeding, the cell plates were incubated at 37° C., 5% CO2 overnight. The next day, medium containing compounds were added to treat the cells for 6 days with medium refreshed once in the middle of the treatment. Eight dose points with 3 folds dilution of each compound were adopted and the highest concentration of the compounds was 10 μM and 100 μM for HBV inhibitory activity and cytotoxicity determination, respectively.
The HBV DAN change in the cell culture medium induced by the compounds was measured by q-PCR (quantitative polymerase chain reaction) method. The HBV DNA in the culture medium was extracted using QIAamp 96 DNA Blood Kit according to the manual and then quantified by q-PCR using the primers and probe in the table below: […]
(§3) EC50 and CC50 values are calculated by the GraphPad Prism software and are averages where multiple measurements were made. EC50 values for the other exemplified compounds were either not measured or higher than 1 μM.

[1] = Cytotoxicity determination in HepG2.2.15 cells (CCK-8); format: cell-based; conditions: human, 6 days of compound treatment, CCK-8, highest concentration 100 μM
Method: as §1, §2
After 6 days of compounds treatment, 20 μl CCK-8 (Cell Counting Kit-8 (Tianjin Biolite company)) reagents were added to each well of cytotoxicity assay plates, the plate was incubated at 37° C., 5% CO2 for 2.5 hours and the absorbance at 450 nm wavelength was measured, at the same time the absorbance at 630 nm wavelength was read as reference.
as §3

SMILES	EC50 (HBV)	CC50 at 6 days [1]
COC(=O)C1=C(C2CCN(S(=O)(=O)c3cnn(CCC(C)(C)O)c3)CC2)NC(c2nccs2)=NC1c1ccc(F)cc1Cl (centres unmarked) [Compound 458, Methyl 4-(2-chloro-4-fluorophenyl)-6-(1-((1-(3-hydroxy-3-methylbutyl)-1H-pyrazol-4-yl)sulfonyl)piperidin-4-yl)-2-(thiazol-2-yl)-1,4-dihydropyrimidine-5-carboxylate]	< 4.6 nM	15500 nM
CCOC(=O)C1=C(C2CCN(S(C)(=O)=O)CC2)NC(c2ncc(F)cc2F)=NC1c1ccc(F)cc1Cl (single isomer, unassigned) [Compound 56A, Ethyl 4-(2-chloro-4-fluorophenyl)-2-(3,5-difluoropyridin-2-yl)-6-(1-(methylsulfonyl)piperidin-4-yl)-1,4-dihydropyrimidine-5-carboxylate]	513 nM	> 10000 nM
CCOC(=O)C1=C([C@H]2CC[C@H](C(=O)O)CC2)NC(c2nccs2)=NC1c1cccc(F)c1Br (stereo partly drawn) [Compound 150A, (trans)-4-(6-(2-bromo-3-fluorophenyl)-5-(ethoxycarbonyl)-2-(thiazol-2-yl)-3,6-dihydropyrimidin-4-yl)cyclohexane-1-carboxylic Acid]	71 nM	28100 nM
CCOC(=O)C1=C(C2CCN(S(=O)(=O)[C@H]3C[C@@H](C(=O)O)C3)CC2)NC(c2nccs2)=NC1c1ccc(F)c(F)c1Cl (relative stereo) [Compound 370D, (cis)-3-((4-(6-(2-Chloro-3,4-difluorophenyl)-5-(ethoxycarbonyl)-2-(thiazol-2-yl)-3,6-dihydropyrimidin-4-yl)piperidin-1-yl)sulfonyl)cyclobutanecarboxylic Acid]	40 nM	26300 nM
COC(=O)C1=C(C2CCN(S(=O)(=O)c3cn[nH]c3)CC2)NC(c2nccs2)=NC1c1cccc(F)c1Cl (centres unmarked) [Compound 158A, methyl 6-(1-((1H-pyrazol-4-yl)sulfonyl)piperidin-4-yl)-4-(2-chloro-3-fluorophenyl)-2-(thiazol-2-yl)-1,4-dihydropyrimidine-5-carboxylate]	9 nM	12700 nM
COC(=O)C1=C(C2CCN(S(=O)(=O)[C@H]3CC[C@H](C(=O)O)CC3)CC2)NC(c2nccs2)=NC1c1ccc(F)cc1Cl (relative stereo) [Compound 313B, (trans)-4-((4-(6-(2-Chloro-4-fluorophenyl)-5-(methoxycarbonyl)-2-(thiazol-2-yl)-3,6-dihydropyrimidin-4-yl)piperidin-1-yl)sulfonyl)-cyclohexanecarboxylic Acid]	11 nM	34600 nM
COC(=O)C1=C([C@H]2CC[C@@H](S(=O)(=O)NC(C)C)CC2)NC(c2nccs2)=NC1c1ccc(F)c(F)c1Cl (single isomer, unassigned) [Compound 234B, (cis)-methyl 4-(2-chloro-3,4-difluorophenyl)-6-(4-(N-isopropylsulfamoyl)cyclohexyl)-2-(thiazol-2-yl)-1,4-dihydropyrimidine-5-carboxylate]	113 nM	16300 nM
CCOC(=O)C1=C([C@@H]2CCN(S(C)(=O)=O)[C@@H](CF)C2)NC(c2nccs2)=NC1c1ccc(F)cc1Cl (relative stereo) [Compound 404N, ethyl 4-(2-chloro-4-fluorophenyl)-6-((trans)-2-(fluoromethyl)-1-(methylsulfonyl)piperidin-4-yl)-2-(thiazol-2-yl)-1,4-dihydropyrimidine-5-carboxylate]	155 nM	17700 nM
COC(=O)C1=C([C@H]2CC[C@H](C(=O)O)CC2)NC(c2nccs2)=NC1c1ccc(F)cc1Br (stereo partly drawn) [Compound 225, (trans)-4-(6-(2-Bromo-4-fluorophenyl)-5-(methoxycarbonyl)-2-(thiazol-2-yl)-3,6-dihydropyrimidin-4-yl)cyclohexanecarboxylic Acid]	87 nM	≥ 100000 nM
COC(=O)C1=C(C2CCN(S(=O)(=O)CCO)CC2)NC(c2nccs2)=NC1c1ccc(F)cc1Cl (single isomer, unassigned) [Compound 185B, Methyl 4-(2-chloro-4-fluorophenyl)-6-(1-((2-hydroxyethyl)sulfonyl)piperidin-4-yl)-2-(thiazol-2-yl)-1,4-dihydropyrimidine-5-carboxylate]	18 nM	26200 nM
COC(=O)C1=C(C2CCN(S(=O)(=O)c3cnn(C4CC4)c3)CC2)NC(c2nccs2)=NC1c1ccc(F)cc1Cl (centres unmarked) [Compound 254]	47 nM	> 100000 nM
COC(=O)C1=C(C2CCN(S(=O)(=O)[C@H]3CC[C@H](CC(=O)O)CC3)CC2)NC(c2nccs2)=NC1c1ccc(F)c(F)c1Cl (relative stereo) [Compound 478A, (trans)-2-(4-((4-(6-(2-Chloro-3,4-difluorophenyl)-5-(methoxycarbonyl)-2-(thiazol-2-yl)-3,6-dihydropyrimidin-4-yl)piperidin-1-yl)sulfonyl)cyclohexyl)acetic Acid]	21 nM	9900 nM
COC(=O)C1=C([C@H]2CC[C@@H](C(=O)OC)O2)NC(c2nccs2)=NC1c1cccc(F)c1Cl (single isomer, unassigned) [Compound 73H, cis-Methyl 4-(2-chloro-3-fluorophenyl)-6-(5-(methoxycarbonyl)-tetrahydro-furan-2-yl)-2-(thiazol-2-yl)-1,4-dihydropyrimidine-5-carboxylate]	350 nM	32900 nM
CCOC(=O)C1=C(C2CCN(S(=O)(=O)[C@H]3C[C@@H](C(=O)O)C3)CC2)NC(c2nccs2)=NC1c1cccc(F)c1Br (relative stereo) [Compound 339D, (cis)-3-((4-(6-(2-Bromo-3-fluorophenyl)-5-(ethoxycarbonyl)-2-(thiazol-2-yl)-3,6-dihydropyrimidin-4-yl)piperidin-1-yl)sulfonyl)cyclobutanecarboxylic Acid]	99 nM	32700 nM
COC(=O)C1=C(C2CCN(S(=O)(=O)[C@H]3C[C@H](C(=O)O)C3)C2)NC(c2nccs2)=NC1c1ccc(F)cc1Cl (relative stereo) [Compound 367A, (trans)-3-((3-(6-(2-chloro-4-fluorophenyl)-5-(methoxycarbonyl)-2-(thiazol-2-yl)-3,6-dihydropyrimidin-4-yl)pyrrolidin-1-yl)sulfonyl)cyclobutanecarboxylic Acid]	303 nM	33400 nM
COC(=O)C1=C(C2CCN(C(=O)C3(C(=O)OC)CC3)CC2)NC(c2nccs2)=NC1c1ccc(F)cc1Cl (centres unmarked) [Compound 108, Methyl-4-(2-chloro-4-fluorophenyl)-6-(1-(1-(methoxycarbonyl)-cyclopropane-1-carbonyl)piperidin-4-yl)-2-(thiazol-2-yl)-1,4-dihydropyrimidine-5-carboxylate]	77 nM	26900 nM
COC(=O)C1=C([C@H]2CC[C@@H](N(CCO)S(C)(=O)=O)CC2)NC(c2nccs2)=NC1c1ccc(F)cc1Cl (single isomer, unassigned) [Compound 180B, (cis)-Methyl 4-(2-chloro-4-fluorophenyl)-6-(4-(N-(2-hydroxyethyl)methylsulfonamido)cyclohexyl)-2-(thiazol-2-yl)-1,4-dihydro-pyrimidine-5-carboxylate]	24 nM	22100 nM
COC(=O)C1=C([C@H]2CCCC(C(=O)O)C2)NC(c2nccs2)=NC1c1cccc(F)c1Cl (stereo in doubt) [Compound 25, cis-3-(6-(2-Chloro-3-fluorophenyl)-5-(methoxycarbonyl)-2-(thiazol-2-yl)-3,6-dihydropyrimidin-4-yl)cyclohexanecarboxylic Acid]	165 nM	35300 nM
COC(=O)C1=C(C2CCN(S(=O)(=O)[C@H]3C[C@@H](C(C)(C)O)C3)CC2)NC(c2nccs2)=NC1c1ccc(F)cc1Cl (single isomer, unassigned) [Compound 244D, (cis)-Methyl 4-(2-chloro-4-fluorophenyl)-6-(1-((3-(2-hydroxypropan-2-yl)cyclobutyl)sulfonyl)piperidin-4-yl)-2-(thiazol-2-yl)-1,4-dihydropyrimidine-5-carboxylate]	107 nM	60000 nM
COC(=O)C1=C(C2CCN(S(=O)(=O)c3ccccn3)CC2)NC(c2nccs2)=NC1c1cccc(F)c1Cl (single isomer, unassigned) [Compound 116B, Methyl 4-(2-chloro-3-fluorophenyl)-6-(1-(pyridin-2-ylsulfonyl)-piperidin-4-yl)-2-(thiazol-2-yl)-1,4-dihydropyrimidine-5-carboxylate]	207 nM	71300 nM
COC(=O)C1=C(C2CCCC(C(=O)O)CC2)NC(c2nccs2)=NC1c1ccc(F)cc1Cl (single isomer, unassigned) [Compound 95A, 4-(6-(2-Chloro-4-fluorophenyl)-5-(methoxycarbonyl)-2-(thiazol-2-yl)-3,6-dihydropyrimidin-4-yl)cycloheptanecarboxylic Acid]	101 nM	–
